Source: US20220117938A1, “COMBINATON THERAPY WITH A DON PRODRUG AND AN IMMUNE CHECKPOINT INHIBITOR” (DRACEN PHARMACEUTICALS, INC., priority 2019, published 2022)

System: Ninety four (94) cell lines and PBMC
Assay: Cell viability assay, SRB staining, 94 cell lines and PBMC (Example 7, Experiment 2)
Assay type: cell-based
Procedure: Ninety four (94) cell lines were seeded at a density varying from 500 to 7000 cells/well depending on their growth characteristics. PBMC were seeded at the density 50,000-100,000 cells/well. Cells were incubated for 48 h prior to compound treatment. Compound 1 and DON were evaluated at a concertation range of 1 nM up to 100 μM. Compound 1 dilutions in DMSO and DON dilutions in PBS were performed in 96-well 0.5 mL plates (Greiner Bio-One, Germany). Compounds were then diluted 1:100 in RPMI medium. […] of cells were treated by mixing with 10 μL of the compound-containing media (resulting in a final DMSO concentration of 0.1%). The cells were allowed to grow at 37° C. for 120 h. Cells were fixed to the surface by addition of 10% TCA (for adherent growing cells) or 50% TCA (for semi-adherent growing cells or cells growing in suspension). After an hour of incubation at 4° C., plates were washed twice with 400 μL of deionized water and dried. Cells were then stained with 100 μL of 0.04% wt/v SRB. The plates were incubated at room temperature for at least 30 min and washed six times with 1% acetic acid to remove unbound stain. The plates were left to dry at room temperature and bound SRB was solubilized with 100 μL of 10 mM Tris base. Optical density was measured at 492, 520 and 560 nm using a Deelux-LED96 plate reader (Deelux Labortechnik GmbH, Germany).
Cell lines were purchased directly from the ATCC, NCI, CLS, and DSMZ cell line collections. A master bank and working aliquots were prepared. Cells used for the study had undergone less than 20 passages. To rule out potential contamination or wrong assignment, all cell lines were tested by STR analysis. Absence of mycoplasma contamination was confirmed for all cell lines used in the studies.
The cell lines were grown in the media recommended by the suppliers in the presence of 100 U/mL penicillin and 100 μg/mL streptomycin supplied with 10% FCS (PAA, Germany). RPMI 1640, DMEM, and MEM Earle's medium were from PAA (Coelbe, Germany), supplements 2 mM L-glutamine, 1 mM Na-pyruvate and 1% NEAA were from PAA (Coelbe, Germany), 2.5% horse serum, hydrocortisone, transferin, beta-estradiol, selenite and 1 U/mL insulin from Sigma-Aldrich (Munich, Germany). RPMI medium was used for culturing the following cell lines: 5637, 22RV1, 7860, A2780, A431, A549, ACHN, ASPC1, BT20, BXPC3, CAKI1, CLS439, COLO205, COLO678, DLD1, DU145, EFO21, EJ28, HCT15, HS578T, IGROV1, JAR, LOVO, MCF7, MDA MB231, MDA MB435, MDA MB436, MDA MB468, MHHES1, MT3, NCI H292, NCI H358M, NCI H460, NCIH82, OVCAR3, OVCAR4, PANC 1005 (addition of insulin), PBMC, PC3, RDES, SF268, SF295, SKBR3, SK MEL28, SKMEL5, SKOV3, SW620, U2OS, UMUC3, and U031.
DMEM medium was used to culture A204, A375, A673, C33A, CASKI, HCT116, HEPG2, HS729, HT29, J82, MG63, MIAPACA2 (addition of horse serum), PANC1, PLCPRF5, RD, SAOS2, SKLMS1, SKNAS, SNB75, T24, and TE671.
MEM Earle's medium was used for CACO2, CALU6, HEK293, HELA, HT1080, IMR90, JEG3, JIMT1, SKHEP1, SKNSH, and U87MG. Cell seeding conditions were optimized for each cell line. The cell seeding density varied from 500 to 7000 cells/well depending on their growth characteristics. Peripheral blood mononuclear cells (PBMC) were freshly isolated from whole blood of an anonymous donor through density gradient centrifugation using Ficoll solution (d=1.077). In short, blood was diluted 1:1 with PBS and carefully placed on the Ficoll. After centrifugation 1000×g for 15 min (braking rate 0), the ring containing mainly leucocytes was collected in PBS followed by three times washing with PBS to reduce the platelets. PBMC were seeded at the density 50,000-100,000 cells/well. Cells were grown in 5% CO2 atmosphere in a NB-203XXL incubator (N-BIOTEK Inc., Korea).
Ninety-four cell lines were tested in parallel. Cell growth and treatment were performed in 96 well microtitre plates CELLSTAR® (Greiner Bio-One, Germany). […]

[1] = Homo sapiens, MDA-MB-468, MDAMB468, breast
[2] = Homo sapiens, MG-63, MG63, bone
[3] = Homo sapiens, MHH-ES-1, MHHES1, bone
[4] = Homo sapiens, MIA PaCa-2, MIAPACA2, pancreas
[5] = Homo sapiens, MINO, hematological
[6] = Homo sapiens, MV4-11, MV4-11, hematological
[7] = Homo sapiens, NCI-H460, NCIH460, lung
[8] = Homo sapiens, OVCAR-3, OVCAR3, ovary
[9] = Homo sapiens, OVCAR-4, OVCAR4, ovary
[10] = Homo sapiens, PANC-1, PANC1, pancreas
[11] = Homo sapiens, PLC-PRF-5, PLCPRF5, liver
[12] = Homo sapiens, Panc1005, PANC1005, pancreas
[13] = Homo sapiens, SAOS-2, SAOS2, bone
[14] = Homo sapiens, SF-268, SF268, brain
[15] = Homo sapiens, SF-295, SF295, brain
[16] = Homo sapiens, SK-BR-3, SKBR3, breast
[17] = Homo sapiens, SK-HEP1, SKHEP1, liver
[18] = Homo sapiens, SK-LMS-1, SKLMS1, uterus
[19] = Homo sapiens, SK-MEL-5, SKMEL5, skin
[20] = Homo sapiens, SK-MEL-28, SKMEL28, skin
[21] = Homo sapiens, SK-N-AS, SKNAS, brain
[22] = Homo sapiens, SK-N-SH, SKNSH, brain
[23] = Homo sapiens, SK-OV-3, SKOV3, ovary
[24] = Homo sapiens, SNB-75, SNB75, brain
[25] = Homo sapiens, SU-DHL-6, SU-DHL-6, hematological
[26] = Homo sapiens, SW-620, SW620, colon
[27] = Homo sapiens, TE-671, TE671, muscle
[28] = Homo sapiens, THP-1, THP-1, hematological
[29] = Homo sapiens, U-87 MG, U87MG, brain
[30] = Homo sapiens, UMUC3, UMUC3, bladder
[31] = Homo sapiens, UO-31, UO31, kidney
[32] = Homo sapiens, WSU-NHL, hematological

## CC(=O)N[C@@H](Cc1c[nH]c2ccccc12)C(=O)N[C@@H](CCC(=O)C=[N+]=[N-])C(=O)OC(C)C [Compound 1, Isopropyl (S)-2-((S)-2-acetamido-3-(1H-indol-3-yl)propanamido)-6-diazo-5-oxohexanoate]
[1]
  GI50: 0.531 µM
  IC50: 0.789 µM
[2]
  GI50: 4.6 µM
  IC50: 5.38 µM
[3]
  GI50: 6.19 µM
  IC50: 6.34 µM
[4]
  GI50: 3.29 µM
  IC50: 3.56 µM
[5]
  GI50: 0.61 µM
  IC50: 0.798 µM
[6]
  GI50: 0.976 µM
  IC50: 1.03 µM
Homo sapiens, NCI-H292, NCIH292, lung
  GI50: 14.5 µM
[7]
  GI50: 4.74 µM
  IC50: 5.01 µM
[8]
  GI50: 1.65 µM
  IC50: 4.06 µM
[9]
  GI50: 0.812 µM
  IC50: 1.67 µM
[10]
  GI50: 7.98 µM
  IC50: 8.46 µM
[11]
  GI50: 6.15 µM
  IC50: 7.45 µM
[12]
  GI50: 14.8 µM
  IC50: 28.9 µM
Homo sapiens, Ramos, hematological
  GI50: 6.63 µM
[13]
  GI50: 2.8 µM
  IC50: 20.8 µM
[14]
  GI50: 7.37 µM
  IC50: 9.53 µM
[15]
  GI50: 9.73 µM
  IC50: 10.9 µM
[16]
  GI50: 2.65 µM
  IC50: 3.91 µM
[17]
  GI50: 3.93 µM
  IC50: 5.12 µM
[18]
  GI50: 1.34 µM
  IC50: 2.15 µM
[19]
  GI50: 2.05 µM
  IC50: 2.9 µM
[20]
  GI50: 1.23 µM
  IC50: 1.61 µM
[21]
  GI50: 7.62 µM
  IC50: 18.6 µM
[22]
  GI50: 8.18 µM
  IC50: 9.15 µM
[23]
  GI50: 1.26 µM
  IC50: 3.81 µM
[24]
  GI50: 18.4 µM
  IC50: 40 µM
Homo sapiens, SU-DHL10, SU-DHL-10, hematological
  GI50: 4.18 µM
[25]
  GI50: 0.971 µM
  IC50: 1.13 µM
[26]
  GI50: 7.96 µM
  IC50: 8.58 µM
[27]
  GI50: 5.44 µM
  IC50: 5.97 µM
[28]
  GI50: 1.99 µM
  IC50: 2.25 µM
Homo sapiens, U2OS, bone
  GI50: 10 µM
  IC50: 12.9 µM
[29]
  GI50: 2.38 µM
  IC50: 4.1 µM
[30]
  GI50: 2.32 µM
  IC50: 2.75 µM
[31]
  GI50: 17.7 µM
  IC50: 44.9 µM
[32]
  GI50: 1.16 µM
  IC50: 1.5 µM
J82, bladder
  IC50: 15.9 µM
JAR, placenta
  IC50: 2.41 µM
MT3, breast
  IC50: 1.46 µM
NCI-H358M, NCIH358M, lung
  GI50: 3.31 µM
  IC50: 8.92 µM
PBMC, 5637, bladder
  GI50: 2.15 µM
PBMC, CLS439, bladder
  GI50: 7.57 µM
PBMC, HS729, muscle
  GI50: 10.1 µM
PBMC, J82, bladder
  GI50: 14.2 µM
PBMC, JAR, placenta
  GI50: 2.23 µM
PBMC, MT3, breast
  GI50: 1.1 µM
PBMC, PC3, prostate
  GI50: 11.5 µM
PBMC, RD, muscle
  GI50: 4.05 µM
PBMC, T24, bladder
  GI50: 4.71 µM
PC3, prostate
  IC50: 17.9 µM
RD, muscle
  IC50: 5.44 µM
RD-ES, RDES, bone
  GI50: 3.95 µM
  IC50: 5.48 µM
T24, bladder
  IC50: 4.95 µM
